Experimental data: patent US10167257B2, “Indole derivatives for use in medicine” (IOmet Pharma Ltd., priority 2014, dated 2019)

Assays:
[1] = molecular target: T1, IDO (SKOV-3 cells) (Homo sapiens, UniProt P14902); assay: IDO cell-based assay (SKOV-3, IFNγ-induced), kynurenine production; conditions: SKOV-3 ovary adenocarcinoma cells, IFNγ 500 ng/ml, 500 μM L-Trp, 48 h, kynurenine by absorbance at 490 nm
T1 construct: This assay utilised cancer cells which expressed either TDO or IDO; host or cells: SKOV-3 ovary adenocarcinoma cells, IFNγ-induced
T1 sequence (P14902 whole entry): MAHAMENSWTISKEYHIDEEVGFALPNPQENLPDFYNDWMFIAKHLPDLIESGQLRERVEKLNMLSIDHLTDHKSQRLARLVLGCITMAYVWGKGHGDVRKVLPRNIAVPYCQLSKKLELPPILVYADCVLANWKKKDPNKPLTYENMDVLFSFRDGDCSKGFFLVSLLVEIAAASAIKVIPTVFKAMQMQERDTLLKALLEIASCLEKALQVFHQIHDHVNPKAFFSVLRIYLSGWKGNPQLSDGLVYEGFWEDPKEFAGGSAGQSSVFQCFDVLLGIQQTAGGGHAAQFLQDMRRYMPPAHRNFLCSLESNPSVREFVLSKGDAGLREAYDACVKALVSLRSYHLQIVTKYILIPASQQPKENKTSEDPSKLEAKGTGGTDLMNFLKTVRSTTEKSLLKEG
Excerpt: (§1) Two different types of assay were employed: 1. A TDO and IDO biochemical coupled assay which utilised recombinantly produced and purified TDO and IDO enzymes in combination with the enzyme formamidase. This coupled enzyme system allowed conversion of N-formylkynurenine produced by TDO or IDO activity to kynurenine which was then quantified by fluorescence following addition of Erhlich's Reagent. 2. A cell-based assay for detecting the effect of test compounds on kynurenine production in two different cancer cell types. This assay utilised cancer cells which expressed either TDO or IDO and as such was used as a means of testing compound activity at these two enzymes in a cell-based context. The protocols for these are set out below.
(§2) A172 human glioblastoma (ATCC) were grown in DMEM+2 mM L-glutamine medium supplemented with 10% foetal bovine serum and SKOV-3 ovary adenocarcinoma (ATCC) cells were grown in McCoys 5A+L-glutamax medium supplemented with 15% foetal bovine serum. On the day of assay, cells were detached using trypsin-EDTA (0.25% v/v), re-suspended in assay media (RPMI 1640 phenol red free+L-glutamine supplemented with 10% dialysed foetal bovine serum). A172 cells were seeded at 30K cells per well and SKOV-3 cells at 40K cells per well into 96-well plates containing test samples/vehicle control together with 500 μM L-Trp. Cells were then incubated for 48 h at 37° C., 5% CO2. In SK-OV-3 cells, IFNγ was also added at 500 ng/ml for the 48 h incubation in order to induce expression of IDO. Plates were centrifuged and the supernatant was removed and incubated for 5 min in the presence of 1% Erhlich's reagent. Kynurenine levels were then quantified by measuring absorbance at 490 nm.

[2] = molecular target: T2, TDO (A172 cells) (Homo sapiens, UniProt P48775); assay: TDO cell-based assay (A172), kynurenine production; conditions: A172 human glioblastoma cells, 500 μM L-Trp, 48 h, kynurenine by absorbance at 490 nm
T2 construct: This assay utilised cancer cells which expressed either TDO or IDO; host or cells: A172 human glioblastoma cells
T2 sequence (P48775 whole entry): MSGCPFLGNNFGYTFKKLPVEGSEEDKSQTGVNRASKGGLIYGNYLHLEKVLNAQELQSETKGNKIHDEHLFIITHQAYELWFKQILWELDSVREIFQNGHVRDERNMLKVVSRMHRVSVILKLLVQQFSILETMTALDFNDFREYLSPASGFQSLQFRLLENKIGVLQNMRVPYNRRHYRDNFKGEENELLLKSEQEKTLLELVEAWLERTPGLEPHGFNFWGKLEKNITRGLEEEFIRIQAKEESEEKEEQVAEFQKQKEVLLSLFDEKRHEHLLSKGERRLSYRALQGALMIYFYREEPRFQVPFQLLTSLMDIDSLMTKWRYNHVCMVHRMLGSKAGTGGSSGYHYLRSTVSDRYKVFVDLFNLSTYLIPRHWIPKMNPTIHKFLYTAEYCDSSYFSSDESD
Excerpt: as §1, §2

| Structure (SMILES) | IDO cellular assay (SKOV3) pIC50 [1] | TDO cellular assay (A172) pIC50 [2] |
| --- | --- | --- |
| O=C(Nc1cccc2[nH]ncc12)c1cc2cc(F)ccc2[nH]1 [Compound 1] | ++ (++ = pIC50 5.00-<5.50) | − (− = pIC50 <4.50) |
| O=C(Nc1cccc2cnccc12)c1cc2ccc(F)cc2[nH]1 [Compound 2] | ++ (++ = pIC50 5.00-<5.50) | − (− = pIC50 <4.50) |
| COc1ccc2cc(C(=O)Nc3cccc4ccccc34)[nH]c2c1 [Compound 3] | +++ (+++ = pIC50 ≥5.50) | − (− = pIC50 <4.50) |
| CC(NC(=O)c1cc2cc(F)ccc2[nH]1)c1ccccc1 (stereo not drawn) [Compound 4] | ++ (++ = pIC50 5.00-<5.50) | + (+ = pIC50 4.50-<5.00) |
| O=C(NCc1ccncc1)c1cc2cc(Cl)ccc2[nH]1 [Compound 5] | + (+ = pIC50 4.50-<5.00) | − (− = pIC50 <4.50) |
| O=C(NC1CCc2ccccc21)c1cc2ccccc2[nH]1 (stereo not drawn) [Compound 6] | + (+ = pIC50 4.50-<5.00) | + (+ = pIC50 4.50-<5.00) |
| COc1ccc2cc(C(=O)Nc3cccc4ncccc34)[nH]c2c1 [Compound 7] | +++ (+++ = pIC50 ≥5.50) | − (− = pIC50 <4.50) |
| CN(C)c1ncc2c(n1)CCC[C@H]2NC(=O)c1cc2cc(F)ccc2[nH]1 [Compound 8] | + (+ = pIC50 4.50-<5.00) | − (− = pIC50 <4.50) |
| O=C(NCc1ccc(Cl)cc1)c1cc2ccccc2[nH]1 [Compound 9] | +++ (+++ = pIC50 ≥5.50) | − (− = pIC50 <4.50) |
| O=C(NCc1ccccc1)c1cc2ccccc2[nH]1 [Compound 10] | − (− = pIC50 <4.50) | + (+ = pIC50 4.50-<5.00) |
| Cc1ccc(C(C)NC(=O)c2cc3ccccc3[nH]2)o1 (stereo not drawn) [Compound 11] | ++ (++ = pIC50 5.00-<5.50) | ++ (++ = pIC50 5.00-<5.50) |
| O=C(NC(c1ccccc1)C1CC1)c1cc2c(F)cccc2[nH]1 (stereo not drawn) [Compound 12] | +++ (+++ = pIC50 ≥5.50) | − (− = pIC50 <4.50) |
| O=C(NCc1cccs1)c1cc2ccccc2[nH]1 [Compound 13] | + (+ = pIC50 4.50-<5.00) | − (− = pIC50 <4.50) |
| CC(NC(=O)c1cc2ccccc2[nH]1)c1cccc(Cl)c1 (stereo not drawn) [Compound 14] | ++ (++ = pIC50 5.00-<5.50) | − (− = pIC50 <4.50) |
| Cc1ccc2[nH]c(C(=O)NC(C)c3cccc(F)c3)cc2c1 (stereo not drawn) [Compound 15] | +++ (+++ = pIC50 ≥5.50) | ++ (++ = pIC50 5.00-<5.50) |
| CC(NC(=O)c1cc2ccccc2[nH]1)c1ccc(Cl)cc1 (stereo not drawn) [Compound 16] | +++ (+++ = pIC50 ≥5.50) | + (+ = pIC50 4.50-<5.00) |
| CC(NC(=O)c1cc2ccccc2[nH]1)c1ccccc1 (stereo not drawn) [Compound 17] | +++ (+++ = pIC50 ≥5.50) | + (+ = pIC50 4.50-<5.00) |
| COc1ccc(C(NC(=O)c2cc3ccccc3[nH]2)C2CC2)cc1 (stereo not drawn) [Compound 18] | +++ (+++ = pIC50 ≥5.50) | − (− = pIC50 <4.50) |
| CC(NC(=O)c1cc2ccccc2[nH]1)c1ccc(C(F)(F)F)cc1 (stereo not drawn) [Compound 19] | +++ (+++ = pIC50 ≥5.50) | − (− = pIC50 <4.50) |
| Cc1cc(C)c2cc(C(=O)NCc3ccc(C)n3C)[nH]c2c1 [Compound 20] | + (+ = pIC50 4.50-<5.00) | − (− = pIC50 <4.50) |
| CC(NC(=O)c1cc2c(Cl)c(Cl)ccc2[nH]1)c1cccnc1 (stereo not drawn) [Compound 21] | ++ (++ = pIC50 5.00-<5.50) | − (− = pIC50 <4.50) |
